The supplement of paper PMC13207355

How the values were obtained:
Conditions in all cases: exposure time: 72 h
E31 [1] = patient-derived glioblastoma stem cells of proneural subtype; experiment: phenotypic distance (Euclidean, principal components) from DMSO controls (arbitrary units); higher = stronger morphological change
E28 [2] = patient-derived glioblastoma stem cells of classical subtype; experiment: as above
E57 [3] = patient-derived glioblastoma stem cells of mesenchymal subtype; experiment: as above
E13 [4] = patient-derived glioblastoma stem cells of classical subtype; experiment: as above
E21 [5] = patient-derived glioblastoma stem cells of mesenchymal subtype; experiment: as above
E34 [6] = patient-derived glioblastoma stem cells of proneural subtype; experiment: as above
FT3469 [7] = normal neural stem cell line; experiment: as above
E31 [8] = experiment: surviving fraction (nuclei count normalised to DMSO); higher = more cells surviving (less toxic)
E28 [9] = experiment: as above
E57 [10] = experiment: as above
E13 [11] = experiment: as above
E21 [12] = experiment: as above
E34 [13] = experiment: as above
FT3469 [14] = experiment: as above
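For phenotypic distance (Euclidean, principal components) from DMSO controls in this document: cell Painting imaging in 384-well plates, CellProfiler features reduced to at least 20 principal components, Euclidean distance versus same-plate DMSO vehicle wells (0.1% v/v), median over six images per well.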
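For surviving fraction (nuclei count normalised to DMSO) in this document: nuclei counted by high-content imaging of Hoechst-stained cells in laminin-coated 384-well plates, relative to 0.1% DMSO vehicle wells, with staurosporine as cell-death control.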

Oc1ccc(OCc2ccccc2)cc1 [Monobenzone]
Conditions | phenotypic distance | surviving fraction
E13 [4], 4.1 nM | 0.73 | –
E13 [4], 12.3 nM | 0.686 | –
E13 [4], 37 nM | 0.829 | –
E13 [4], 111.1 nM | 0.608 | –
E13 [4], 333.3 nM | 0.563 | –
E13 [4], 1000 nM | 0.694 | –
E13 [4], 3000 nM | 1.62 | –
E13 [11], 4.1 nM | – | 1.02
E13 [11], 12.3 nM | – | 1.11
E13 [11], 37 nM | – | 0.916
E13 [11], 111.1 nM | – | 1.04
E13 [11], 333.3 nM | – | 0.962
E13 [11], 1000 nM | – | 1.06
E13 [11], 3000 nM | – | 0.738
E21 [5], 4.1 nM | 0.533 | –
E21 [5], 12.3 nM | 0.297 | –
E21 [5], 37 nM | 0.463 | –
E21 [5], 111.1 nM | 0.324 | –
E21 [5], 333.3 nM | 0.511 | –
E21 [5], 1000 nM | 0.562 | –
E21 [5], 3000 nM | 1.35 | –
E21 [12], 4.1 nM | – | 1.01
E21 [12], 12.3 nM | – | 1.02
E21 [12], 37 nM | – | 0.985
E21 [12], 111.1 nM | – | 0.974
E21 [12], 333.3 nM | – | 1.01
E21 [12], 1000 nM | – | 0.951
E21 [12], 3000 nM | – | 0.932
E28 [2], 4.1 nM | 0.962 | –
E28 [2], 12.3 nM | 0.487 | –
E28 [2], 37 nM | 0.802 | –
E28 [2], 111.1 nM | 0.466 | –
E28 [2], 333.3 nM | 0.474 | –
E28 [2], 1000 nM | 0.692 | –
E28 [2], 3000 nM | 1.42 | –
E28 [9], 4.1 nM | – | 1.09
E28 [9], 12.3 nM | – | 1.17
E28 [9], 37 nM | – | 1.12
E28 [9], 111.1 nM | – | 1.02
E28 [9], 333.3 nM | – | 1.04
E28 [9], 1000 nM | – | 1.04
E28 [9], 3000 nM | – | 0.875
E31 [1], 4.1 nM | 0.6 | –
E31 [1], 12.3 nM | 0.685 | –
E31 [1], 37 nM | 0.704 | –
E31 [1], 111.1 nM | 0.686 | –
E31 [1], 333.3 nM | 0.51 | –
E31 [1], 1000 nM | 0.575 | –
E31 [1], 3000 nM | 1.87 | –
E31 [8], 4.1 nM | – | 1.17
E31 [8], 12.3 nM | – | 1.1
E31 [8], 37 nM | – | 1.24
E31 [8], 111.1 nM | – | 1.19
E31 [8], 333.3 nM | – | 1.04
E31 [8], 1000 nM | – | 1.06
E31 [8], 3000 nM | – | 0.603
E34 [6], 4.1 nM | 0.726 | –
E34 [6], 12.3 nM | 0.858 | –
E34 [6], 37 nM | 0.945 | –
E34 [6], 111.1 nM | 0.661 | –
E34 [6], 333.3 nM | 0.606 | –
E34 [6], 1000 nM | 0.28 | –
E34 [6], 3000 nM | 0.624 | –
E34 [13], 4.1 nM | – | 1.13
E34 [13], 12.3 nM | – | 0.972
E34 [13], 37 nM | – | 0.966
E34 [13], 111.1 nM | – | 1.13
E34 [13], 333.3 nM | – | 0.984
E34 [13], 1000 nM | – | 1.12
E34 [13], 3000 nM | – | 1.07
E57 [3], 4.1 nM | 0.522 | –
E57 [3], 12.3 nM | 0.58 | –
E57 [3], 37 nM | 1.19 | –
E57 [3], 111.1 nM | 1.86 | –
E57 [3], 333.3 nM | 0.673 | –
E57 [3], 1000 nM | 0.736 | –
E57 [3], 3000 nM | 3.91 | –
E57 [10], 4.1 nM | – | 1.07
E57 [10], 12.3 nM | – | 1.06
E57 [10], 37 nM | – | 1.14
E57 [10], 111.1 nM | – | 1.05
E57 [10], 333.3 nM | – | 0.979
E57 [10], 1000 nM | – | 0.963
E57 [10], 3000 nM | – | 0.842
FT3469 [7], 4.1 nM | 1.23 | –
FT3469 [7], 12.3 nM | 0.456 | –
FT3469 [7], 37 nM | 0.649 | –
FT3469 [7], 111.1 nM | 0.576 | –
FT3469 [7], 333.3 nM | 1.04 | –
FT3469 [7], 1000 nM | 0.884 | –
FT3469 [7], 3000 nM | 1.07 | –
FT3469 [14], 4.1 nM | – | 1.35
FT3469 [14], 12.3 nM | – | 1.12
FT3469 [14], 37 nM | – | 1.14
FT3469 [14], 111.1 nM | – | 0.963
FT3469 [14], 333.3 nM | – | 1.02
FT3469 [14], 1000 nM | – | 0.999
FT3469 [14], 3000 nM | – | 0.689

COc1nc(C)nc(Cl)c1NC1=NCCN1 [Moxonidine]
Conditions | phenotypic distance | surviving fraction
E13 [4], 4.1 nM | 0.65 | –
E13 [4], 12.3 nM | 0.585 | –
E13 [4], 37 nM | 0.647 | –
E13 [4], 111.1 nM | 0.433 | –
E13 [4], 333.3 nM | 0.523 | –
E13 [4], 1000 nM | 0.446 | –
E13 [4], 3000 nM | 0.37 | –
E13 [11], 4.1 nM | – | 0.843
E13 [11], 12.3 nM | – | 1.02
E13 [11], 37 nM | – | 0.886
E13 [11], 111.1 nM | – | 0.915
E13 [11], 333.3 nM | – | 0.908
E13 [11], 1000 nM | – | 0.948
E13 [11], 3000 nM | – | 0.923
E21 [5], 4.1 nM | 0.506 | –
E21 [5], 12.3 nM | 0.442 | –
E21 [5], 37 nM | 0.528 | –
E21 [5], 111.1 nM | 1.03 | –
E21 [5], 333.3 nM | 0.334 | –
E21 [5], 1000 nM | 0.69 | –
E21 [5], 3000 nM | 0.274 | –
E21 [12], 4.1 nM | – | 1.03
E21 [12], 12.3 nM | – | 0.94
E21 [12], 37 nM | – | 0.924
E21 [12], 111.1 nM | – | 1.12
E21 [12], 333.3 nM | – | 1.1
E21 [12], 1000 nM | – | 1.06
E21 [12], 3000 nM | – | 0.991
E28 [2], 4.1 nM | 0.486 | –
E28 [2], 12.3 nM | 0.819 | –
E28 [2], 37 nM | 0.764 | –
E28 [2], 111.1 nM | 0.711 | –
E28 [2], 333.3 nM | 0.733 | –
E28 [2], 1000 nM | 0.573 | –
E28 [2], 3000 nM | 0.781 | –
E28 [9], 4.1 nM | – | 0.996
E28 [9], 12.3 nM | – | 1.06
E28 [9], 37 nM | – | 0.904
E28 [9], 111.1 nM | – | 1.13
E28 [9], 333.3 nM | – | 0.848
E28 [9], 1000 nM | – | 1.05
E28 [9], 3000 nM | – | 0.825
E31 [1], 4.1 nM | 0.413 | –
E31 [1], 12.3 nM | 0.823 | –
E31 [1], 37 nM | 0.773 | –
E31 [1], 111.1 nM | 0.902 | –
E31 [1], 333.3 nM | 0.598 | –
E31 [1], 1000 nM | 0.599 | –
E31 [1], 3000 nM | 0.717 | –
E31 [8], 4.1 nM | – | 1
E31 [8], 12.3 nM | – | 1.18
E31 [8], 37 nM | – | 0.879
E31 [8], 111.1 nM | – | 1.15
E31 [8], 333.3 nM | – | 0.956
E31 [8], 1000 nM | – | 1.21
E31 [8], 3000 nM | – | 1.06
E34 [6], 4.1 nM | 0.347 | –
E34 [6], 12.3 nM | 0.861 | –
E34 [6], 37 nM | 0.936 | –
E34 [6], 111.1 nM | 0.523 | –
E34 [6], 333.3 nM | 0.639 | –
E34 [6], 1000 nM | 0.533 | –
E34 [6], 3000 nM | 1.09 | –
E34 [13], 4.1 nM | – | 0.953
E34 [13], 12.3 nM | – | 0.957
E34 [13], 37 nM | – | 0.962
E34 [13], 111.1 nM | – | 1.07
E34 [13], 333.3 nM | – | 1.26
E34 [13], 1000 nM | – | 0.981
E34 [13], 3000 nM | – | 0.699
E57 [3], 4.1 nM | 0.464 | –
E57 [3], 12.3 nM | 0.657 | –
E57 [3], 37 nM | 0.543 | –
E57 [3], 111.1 nM | 0.801 | –
E57 [3], 333.3 nM | 0.46 | –
E57 [3], 1000 nM | 0.757 | –
E57 [3], 3000 nM | 0.505 | –
E57 [10], 4.1 nM | – | 1.06
E57 [10], 12.3 nM | – | 0.999
E57 [10], 37 nM | – | 1.06
E57 [10], 111.1 nM | – | 1.03
E57 [10], 333.3 nM | – | 0.978
E57 [10], 1000 nM | – | 0.975
E57 [10], 3000 nM | – | 1.04
FT3469 [7], 4.1 nM | 0.479 | –
FT3469 [7], 12.3 nM | 0.821 | –
FT3469 [7], 37 nM | 0.541 | –
FT3469 [7], 111.1 nM | 0.878 | –
FT3469 [7], 333.3 nM | 0.406 | –
FT3469 [7], 1000 nM | 0.742 | –
FT3469 [7], 3000 nM | 0.873 | –
FT3469 [14], 4.1 nM | – | 1.03
FT3469 [14], 12.3 nM | – | 1.1
FT3469 [14], 37 nM | – | 1.25
FT3469 [14], 111.1 nM | – | 1.04
FT3469 [14], 333.3 nM | – | 1.26
FT3469 [14], 1000 nM | – | 1.18
FT3469 [14], 3000 nM | – | 1.38
